From PubChem BioAssay (NCI)
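Each compound was tested at five concentrations against cells in 96-well plates for 48 hours. GI50: concentration for 50% inhibition of growth. TGI: total growth inhibition.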

Assays:
Test in all cases: NCI tumour cell line growth inhibition, 48 h
[1] = test system: NCI-H23 lung
[2] = test system: K-562 leukemia
[3] = test system: MALME-3M melanoma
[4] = test system: HOP-62 NSCLC
[5] = test system: UACC-62 melanoma
[6] = test system: SF-268 CNS
[7] = test system: OVCAR-5 ovarian
[8] = test system: LOX IMVI melanoma
[9] = test system: UO-31 renal
[10] = test system: TK-10 renal

Row | Compound | GI50 [1] [µM] | TGI [1] [µM] | GI50 [2] [µM] | TGI [2] [µM] | GI50 [3] [µM] | TGI [3] [µM] | GI50 [4] [µM] | TGI [4] [µM] | GI50 [5] [µM] | TGI [5] [µM] | GI50 [6] [µM] | TGI [6] [µM] | GI50 [7] [µM] | TGI [7] [µM] | GI50 [8] [µM] | TGI [8] [µM] | GI50 [9] [µM] | TGI [9] [µM] | TGI [10] [µM] | GI50 [10] [µM]
1 | COc1ccc2nc3cc([N+](=O)[O-])ccc3c(NCCCCCN(C)C)c2c1 | 0.25 | 1.54 | 0.0255 | 0.353 | 0.233 | 1.03 | 0.0536 | 0.301 | 0.231 | 0.74 | 0.285 | 2.26 | 0.497 | 3.92 | 0.279 | 1.1 | 0.819 | 3.63 |  | 
2 | CNC(=O)OCc1nc(SC2CCCCO2)n(C)c1COC(=O)NC (configuration not stated) |  | > 100 |  | > 100 |  | > 100 |  | > 100 |  | > 100 |  | > 100 |  | > 100 |  | > 100 |  | > 100 |  | 
3 | COc1cc(/C=C2\C(=O)N(C(=O)Cc3ccccc3)N=C2C)ccc1O |  | > 100 |  | > 100 |  | > 100 |  | > 100 |  |  |  | > 100 |  | > 100 |  | > 100 |  | > 100 | > 100 | 
4 | COc1ccccc1NC(=O)CC(=O)N1N=C(C)C(N=Nc2ccc(S(N)(=O)=O)cc2)C1=O (configuration not stated) |  | > 100 |  |  |  | > 100 |  | > 100 |  | > 100 |  | > 100 |  | > 100 |  | > 100 |  | > 100 | > 100 | 
5 | N#CC(C(=O)/C(=N/NC(=O)c1ccccc1O)C(C#N)c1ccc(Cl)cc1)c1ccc(Cl)cc1 (configuration not stated) |  | 23.7 |  | 79.1 |  | 25.5 |  | 38.7 |  |  |  | 32.2 |  | 34.3 |  | 27.3 |  | 30.9 | 31.3 | 
6 | O=Cc1cn(C(=O)c2ccccc2)c2ccccc12 |  | > 100 |  | > 100 |  | > 100 |  | > 100 |  | > 100 |  |  |  | > 100 |  |  |  | > 100 | > 100 | 
7 | O=C(O)c1ccc([Se][Se]c2ccc(C(=O)O)cc2)cc1 |  | 37.6 |  |  |  | 68.3 |  |  |  | 33.4 |  | > 100 |  | 66.8 |  |  |  | 77.7 | 54.1 | 
8 | COC(=O)CCC1CCc2c(OC)ccc(O)c2C1=O (configuration not stated) |  | > 100 |  | > 100 |  | > 100 |  | > 100 |  | > 100 |  | > 100 |  |  |  | > 100 |  | > 100 | > 100 | 
9 | C[N+](C)(C)CC(=O)N/N=C(/Cc1nc2c3c(ccc2[nH]c1=O)C(=O)c1ccccc1C3=O)C(=O)Nc1ccc(Cl)c(Cl)c1 |  | > 100 |  | > 100 |  | > 100 |  | > 100 |  | > 100 |  | > 100 |  | > 100 |  |  |  | 47.2 | > 100 | 
10 | COc1ccc2c(c1)C(O)(C(F)(F)F)c1cc(C(=O)C(F)(F)F)c3ccccc3c1N2 (configuration not stated) |  | 25.6 |  | 15.7 |  |  |  |  |  | 15.4 |  | 24.1 |  | 27.5 |  | 16.5 |  | 21.5 | 27.4 | 
11 | CN(CCCN)CCCNc1nc2ccccc2c2[nH]c3ccccc3c12 | 0.201 | 0.57 | 0.0638 | 0.346 | 0.115 | 0.325 | 0.179 | 0.683 | 0.285 | 0.692 | 0.241 | 1.07 | 0.18 | 0.652 |  |  | 0.337 | 1.34 | 3.16 | 0.54
12 | Cc1occc1C(=S)Nc1ccc(Cl)c(COC(C)(C)C)c1 |  | 35.7 |  |  |  | 31.1 |  | 44.9 |  | 28.6 |  | 35.9 |  | 50.6 |  | 34 |  | 26 | 34.8 | 
13 | Cc1c(C(=O)/C=C/c2csc3ccccc23)[n+](=O)c2ccccc2n1[O-] | 1.61 | 3.49 |  |  | 2.29 | 8.06 | 1.41 | 2.8 | 1.77 | 3.65 | 1.44 | 2.78 | 1.47 | 2.94 | 1.23 | 2.47 | 1.24 | 2.56 | 6.09 | 2.79
14 | Nc1cc2cccc[n+]2c2cc(Cl)ccc12 | 13.2 | 53.6 | 3.01 | 22 | 2.38 | 11.7 |  |  | 18.7 | 45.9 | 4.03 | 21.7 | 25.7 |  |  |  | 43.6 |  |  | 59.7
15 | O=C1c2ccccc2-c2c1c1ccccc1c(=O)n2CCCNCCCNCCCn1c2c(c3ccccc3c1=O)C(=O)c1ccccc1-2 | 0.0383 | 1.64 | 0.0225 | 1.22 |  |  | < 0.01 |  | 0.0434 | 0.346 | 0.231 | 4.13 | 0.0763 | 0.731 | 0.0215 | 0.175 | 0.0878 | 0.215 | 0.732 | 
16 | CC1(C)SC2C(NC(=O)C(N)c3ccccc3)C(=O)N2C1C(=O)O (configuration not stated) |  | > 100 |  |  |  |  |  | > 100 |  | > 100 |  | > 100 |  | > 100 |  | > 100 |  | > 100 | > 100 | 
17 | C=C1C(=O)O[C@H]2[C@H]1CC/C(COC(=O)NCc1ccccc1OC)=C\CC[C@@]1(C)O[C@@H]21 | 1.74 | 4.11 | 0.821 | 6.07 | 1.89 | 3.98 | 3.69 | 14.4 |  |  | 2.2 | 6.74 | 2.29 | 5.44 | 1.43 | 2.96 | 1.68 | 3.18 | 3.48 | 1.79
18 | COC(=O)[C@@H](C)C[C@H](Cc1ccccc1)NC(=O)c1nc([C@@H](C[C@H](C(C)C)N(C)C(=O)[C@@H](NC(=O)[C@H]2CCCCN2C)C(C)C)OC(C)=O)sc1C | 0.00302 | > 16.7 | < 0.00167 | > 16.7 |  |  | 0.00186 | > 16.7 | < 0.00167 | > 16.7 | 0.00472 | > 16.7 | 0.00478 | > 16.7 | < 0.00167 | > 16.7 | 0.0118 | > 16.7 | > 16.7 | > 10.4
19 | O=c1c2c([nH]c3cc4c(cc13)OCO4)-c1ccccc1CC2 |  | > 100 |  | > 100 |  | > 100 |  | > 100 |  | > 100 |  | > 100 |  |  |  | > 100 |  | > 100 | > 100 | 
